Measured values published in US20240263153A1, “INTEGRASE COMPOSITIONS AND METHODS” (Flagship Pioneering Innovations Vi, LLC, priority 2021, published 2024).

System: mouse liver
Test: LNP-mediated delivery of RNA to the mouse liver (luciferase activity of liver homogenate)
Type: in vivo
Details: C57BL6 male mice, i.v. 1 mg/kg, Firefly luciferase mRNA-LNPs, liver at 6, 24, 48 hours
Description: To measure the effectiveness of LNP-mediated delivery of firefly luciferase containing particles to the liver, LNPs were formulated and characterized as described herein and tested in vitro prior to administration to mice. C57BL6 male mice (Charles River Labs) at approximately 8 weeks of age were dosed with LNPs via intravenous (i.v.) route at 1 mg/kg. Vehicle control animals were dosed i.v. with 300 μL phosphate buffered saline. Mice were injected via intraperitoneal route with dexamethasone at 5 mg/kg 30 minutes prior to injection of LNPs. Tissues were collected at necropsy at or 6, 24, 48 hours after LNP administration with a group size of 5 mice per time point. Liver and other tissue samples were collected, snap-frozen in liquid nitrogen, and stored at −80° C. until analysis.
Frozen liver samples were pulverized on dry ice and transferred to homogenization tubes containing lysing matrix D beads (MP Biomedical). Ice-cold 1× luciferase cell culture lysis reagent (CCLR) (Promega) was added to each tube and the samples were homogenized in a Fast Prep-24 5G Homogenizer (MP Biomedical) at 6 m/s for 40 seconds. The samples were transferred to a clean microcentrifuge tube and clarified by centrifugation. Prior to luciferase activity assay, the protein concentration of liver homogenates was determined for each sample using the Pierce™ BCA Protein Assay Kit (ThermoFisher Scientific) according to the manufacturer's instructions. Luciferase activity was measured with […] (total protein) of liver homogenate using the luciferase assay reagent (Promega) according to manufacturer's instructions using an i3X SpectraMax plate reader (Molecular Devices). […] Reporter activity by the various formulations followed the ranking LIPIDV005>LIPIDV004>LIPIDV003. RNA expression was transient and enzyme levels returned near vehicle background by 48 hours. Post-administration. This assay validated the use of these ionizable lipids and their respective formulations for RNA systems for delivery to the liver.

Row | Compound | luciferase reporter activity in liver samples
1 | CCCCCCCCCOC(=O)CCCCCCCN(CCO)CCCCCCCC(=O)OC(CCCCCCCC)CCCCCCCC [LIPIDV004, Heptadecan-9-yl 8-((2-hydroxyethyl)(8-(nonyloxy)-8-oxooctyl)amino)octanoate] | LIPIDV005>LIPIDV004>LIPIDV003
2 | CCCCC/C=C\C/C=C\CCCCCCCC(=O)OCC(COC(=O)CCC(OCCCCCCCC)OCCCCCCCC)COC(=O)OCCCN(CC)CC (stereo not drawn) [LIPIDV003, (9Z,12Z)-3-((4,4-bis(octyloxy)butanoyl)oxy)-2-((((3-(diethylamino)propoxy)carbonyl)oxy)methyl)propyl octadeca-9,12-dienoate] | LIPIDV005>LIPIDV004>LIPIDV003
3 | CCCCCCCC(=O)N(CCCN(C)C)C(CCCCCCCCC(=O)OC(CCCCCC)CCCCCC)CCCCCCCCC(=O)OC(CCCCCC)CCCCCC [LIPIDV005] | LIPIDV005>LIPIDV004>LIPIDV003
